Measured values as given in US11426473B2, “Nitrogen-containing compound or salt thereof, or metal complex thereof” (FUJIFILM Corporation, priority 2013, dated 2022).

Assays:
Integrin αvβ3 = biological target: T1, Integrin αvβ3 (Homo sapiens, UniProt P05106+P06756); experiment: Integrin αvβ3 binding affinity test; details: inhibition of biotinylated vitronectin binding to immobilized αvβ3; read-out: IC50 value αv β3
T1 construct: purchased Chemicon International, Inc
Experimental: (§1) […] αvβ3 (Chemicon International, Inc.) was immobilized on each well of a 96-well plate (Corning Inc.). Each well was blocked with a 1% Block Ace (DS Pharma Biomedical Co., Ltd) solution and then washed with T-PBS (PBS containing 0.05% Tween 20). Evaluation compound solutions having a 2-fold concentration (10 concentrations of 3.16-fold dilutions from 0.3 μmol/L, buffer (20 mM Tris-HCl pH 7.5, 150 mM NaCl, 1 mM CaCl2, 1 mM MgCl2, and 1 mM MnCl2)) and a 4 μg/mL biotinylated vitronectin solution (vitronectin (Upstate Biotechnology Inc.) was labeled with EZ-Link Sulfo-NHS-Biotinylation Kit (Pierce/Thermo Fisher Scientific Inc.) and then concentration-adjusted) were each added at 50 μL/well, and the plate was shaken at room temperature for 2 hours. After washing with T-PBS, a 0.2 μg/mL avidin peroxidase (Pierce/Thermo Fisher Scientific Inc.) solution was added thereto, and the plate was shaken at room temperature for 1 hour. After washing with T-PBS, color was developed by an o-phenylenediamine (Sigma-Aldrich Inc.) solution (the reaction was terminated by the addition of 4 mol/L sulfuric acid), and the absorbance was measured (490 nm, Reference: 595 nm). The IC50 value was calculated using XLfit 3.0 (ID Business Solutions Ltd.). RGDfV (Bachem AG) was measured in duplicate as a QC sample for each plate.

Integrin αvβ5 = biological target: T2, Integrin αvβ5 (Homo sapiens, UniProt P06756+P18084); experiment: Integrin αvβ5 binding affinity test; details: inhibition of biotinylated vitronectin binding to immobilized αvβ5; read-out: IC50 value αvβ5
T2 construct: purchased Chemicon International, Inc
T2 sequence (P06756 31-889 limits assumed): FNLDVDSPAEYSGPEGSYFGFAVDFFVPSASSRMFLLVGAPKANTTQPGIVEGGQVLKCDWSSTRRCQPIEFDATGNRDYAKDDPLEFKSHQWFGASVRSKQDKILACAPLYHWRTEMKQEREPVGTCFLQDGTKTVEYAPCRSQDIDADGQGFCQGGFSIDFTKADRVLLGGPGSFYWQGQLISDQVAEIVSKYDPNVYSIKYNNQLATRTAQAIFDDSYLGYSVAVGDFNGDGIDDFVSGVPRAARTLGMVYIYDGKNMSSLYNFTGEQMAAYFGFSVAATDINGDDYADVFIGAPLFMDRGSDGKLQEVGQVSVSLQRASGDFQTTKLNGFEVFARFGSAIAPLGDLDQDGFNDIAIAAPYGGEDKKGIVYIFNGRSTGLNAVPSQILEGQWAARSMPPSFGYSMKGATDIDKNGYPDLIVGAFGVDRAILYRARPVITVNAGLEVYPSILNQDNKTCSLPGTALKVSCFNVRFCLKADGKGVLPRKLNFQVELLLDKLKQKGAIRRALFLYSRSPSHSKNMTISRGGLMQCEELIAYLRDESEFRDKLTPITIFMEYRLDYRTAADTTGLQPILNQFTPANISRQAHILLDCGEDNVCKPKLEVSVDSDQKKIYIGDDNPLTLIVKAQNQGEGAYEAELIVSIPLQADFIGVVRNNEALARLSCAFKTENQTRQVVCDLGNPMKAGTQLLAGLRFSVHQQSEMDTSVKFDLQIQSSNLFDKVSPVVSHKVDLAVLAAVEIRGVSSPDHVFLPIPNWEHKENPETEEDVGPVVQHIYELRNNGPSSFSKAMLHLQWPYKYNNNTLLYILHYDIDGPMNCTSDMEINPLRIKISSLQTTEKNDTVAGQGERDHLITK
T2 sequence (P06756 891-1048 partner limits assumed): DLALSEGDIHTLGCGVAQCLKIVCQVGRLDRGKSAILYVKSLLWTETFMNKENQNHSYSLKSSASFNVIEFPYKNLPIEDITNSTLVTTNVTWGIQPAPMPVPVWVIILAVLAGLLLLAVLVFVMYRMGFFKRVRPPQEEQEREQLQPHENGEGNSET
T2 sequence (P18084 24-799): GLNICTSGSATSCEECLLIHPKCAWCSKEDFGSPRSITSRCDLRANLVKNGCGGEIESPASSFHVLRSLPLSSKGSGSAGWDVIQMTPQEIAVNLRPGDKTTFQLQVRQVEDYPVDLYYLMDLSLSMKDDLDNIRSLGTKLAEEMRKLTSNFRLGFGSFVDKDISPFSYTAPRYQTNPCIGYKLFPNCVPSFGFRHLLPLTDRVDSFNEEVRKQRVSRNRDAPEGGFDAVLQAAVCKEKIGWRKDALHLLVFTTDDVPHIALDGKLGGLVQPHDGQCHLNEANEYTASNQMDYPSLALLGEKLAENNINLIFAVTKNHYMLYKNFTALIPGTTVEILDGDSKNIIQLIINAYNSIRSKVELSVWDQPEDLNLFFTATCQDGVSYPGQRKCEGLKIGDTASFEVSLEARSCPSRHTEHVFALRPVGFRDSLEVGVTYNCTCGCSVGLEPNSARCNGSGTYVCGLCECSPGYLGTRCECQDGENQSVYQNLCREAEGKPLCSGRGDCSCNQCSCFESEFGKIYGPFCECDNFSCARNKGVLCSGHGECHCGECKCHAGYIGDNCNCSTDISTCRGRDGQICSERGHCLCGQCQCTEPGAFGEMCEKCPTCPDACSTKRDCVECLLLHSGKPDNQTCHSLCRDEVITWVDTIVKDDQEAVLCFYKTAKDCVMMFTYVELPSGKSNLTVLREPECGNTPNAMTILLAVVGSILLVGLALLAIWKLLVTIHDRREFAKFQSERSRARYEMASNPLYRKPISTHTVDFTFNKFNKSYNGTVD
Experimental: as §1, with “αvβ5” for “αvβ3”, “PBST (10 mM Na2HPO4 pH 7.5, 150 mM NaCl, and 0.01%” for “T-PBS (PBS containing 0.05%”, “PBST,” for “T-PBS,”

T1 sequence (P06756 31-889 limits assumed): as the sequence (P06756 31-889 limits assumed) above
T1 sequence (P06756 891-1048 partner limits assumed): as the sequence (P06756 891-1048 partner limits assumed) above
T1 sequence (P05106 27-788): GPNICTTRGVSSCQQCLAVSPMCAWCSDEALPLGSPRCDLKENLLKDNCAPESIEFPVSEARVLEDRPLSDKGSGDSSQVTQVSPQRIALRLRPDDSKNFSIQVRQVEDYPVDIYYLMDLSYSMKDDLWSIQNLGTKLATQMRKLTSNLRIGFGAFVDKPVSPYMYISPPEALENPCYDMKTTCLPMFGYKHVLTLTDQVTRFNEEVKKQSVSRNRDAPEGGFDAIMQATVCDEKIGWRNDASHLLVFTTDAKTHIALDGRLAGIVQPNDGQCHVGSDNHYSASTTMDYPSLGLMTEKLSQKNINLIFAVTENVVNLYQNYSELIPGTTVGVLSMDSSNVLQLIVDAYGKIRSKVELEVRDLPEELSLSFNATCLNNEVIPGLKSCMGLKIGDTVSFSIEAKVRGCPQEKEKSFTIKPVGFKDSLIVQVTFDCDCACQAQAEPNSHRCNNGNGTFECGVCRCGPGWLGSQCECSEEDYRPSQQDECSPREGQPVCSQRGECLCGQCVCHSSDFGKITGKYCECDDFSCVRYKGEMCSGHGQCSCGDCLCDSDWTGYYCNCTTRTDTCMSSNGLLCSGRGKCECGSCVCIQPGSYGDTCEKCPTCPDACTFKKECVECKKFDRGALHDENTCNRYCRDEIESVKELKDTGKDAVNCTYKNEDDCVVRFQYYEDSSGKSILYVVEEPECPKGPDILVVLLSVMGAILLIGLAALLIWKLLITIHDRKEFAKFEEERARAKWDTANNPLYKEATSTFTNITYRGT

Row | Structure (SMILES) | IC50 (Integrin αvβ3) [nM] | IC50 (Integrin αvβ5) [nM]
1 | Cc1cc(OCCCC(=O)NCCNC(=O)[C@H](CS(=O)(=O)O)NC(=O)CN2CCN(CC(=O)O)CCN(CC(=O)O)CCN(CC(=O)O)CC2)cc(C)c1S(=O)(=O)N[C@@H](CNC(=O)CCCCCc1ccc2c(n1)NCCC2)C(=O)O [Compound W10, 2,2′,2″-(10-(2-(((R)-1-((2-(4-(4-(N—((S)-1-carboxy-2-(6-(5,6,7,8-tetrahydro-1,8-naphthyridin-2-yl)hexanamido)ethyl)sulfamoyl)-3,5-dimethylphenoxy)butanamido)ethyl)amino)-1-oxo-3-sulfopropan-2-yl)amino)-2-oxoethyl)-1,4,7,10-tetraazacyclododecane-1,4,7-triyl)triacetic acid] | < 1 | 1 to 10
2 | Cc1cc(OCCCC(=O)NCCNC(=O)COCCOCCNC(=O)[C@H](CS(=O)(=O)O)NC(=O)CN2CCN(CC(=O)O)CCN(CC(=O)O)CCN(CC(=O)O)CC2)cc(C)c1S(=O)(=O)N[C@@H](CNC(=O)c1ccc(CCc2ccc3c(n2)NCCC3)cc1)C(=O)O [Compound G3, 2,2′,2″-(10-((R)-22-(4-(N—((S)-1-carboxy-2-(4-(2-(5,6,7,8-tetrahydro-1,8-naphthyridin-2-yl)ethyl)benzamido)ethyl)sulfamoyl)-3,5-dimethylphenoxy)-2,5,14,19-tetraoxo-4-(sulfomethyl)-9,12-dioxa-3,6,15,18-tetraazadocosyl)-1,4,7,10-tetraazacyclododecane-1,4,7-triyl)triacetic acid] | < 1 | < 1
3 | O=C(O)CC(c1cncc(OCCCC(=O)NCCNC(=O)[C@H](CS(=O)(=O)O)NC(=O)[C@H](CS(=O)(=O)O)NC(=O)CN2CCN(CC(=O)O)CCN(CC(=O)O)CCN(CC(=O)O)CC2)c1)n1ccc2cc(OCCc3ccc4c(n3)NCCC4)ccc21 (stereo partly drawn) [Compound I21, 2,2′,2″-(10-((4R,7R)-16-((5-(2-carboxy-1-(5-(2-(5,6,7,8-tetrahydro-1,8-naphthyridin-2-yl)ethoxy)-1H-indol-1-yl)ethyl)pyridin-3-yl)oxy)-2,5,8,13-tetraoxo-4,7-bis(sulfomethyl)-3,6,9,12-tetraazahexadecyl)-1,4,7,10-tetraazacyclododecane-1,4,7-triyl)triacetic acid] | < 1 | < 1
4 | Cc1cc(OCCCC(=O)NCCNC(=O)[C@H](CS(=O)(=O)O)NC(=O)[C@H](CS(=O)(=O)O)NC(=O)CN2CCN(CC(=O)O)CCN(CC(=O)O)CCN(CC(=O)O)CC2)cc(C)c1S(=O)(=O)N[C@@H](CNC(=O)c1ccc(CCc2ccc3c(n2)NCCC3)cc1)C(=O)O [Compound A8, 2,2′,2″-(10-((4R,7R)-16-(4-(N—((S)-1-carboxy-2-(4-(2-(5,6,7,8-tetrahydro-1,8-naphthyridin-2-yl)ethyl)benzamido)ethyl)sulfamoyl)-3,5-dimethylphenoxy)-2,5,8,13-tetraoxo-4,7-bis(sulfomethyl)-3,6,9,12-tetraazahexadecyl)-1,4,7,10-tetraazacyclododecane-1,4,7-triyl)triacetic acid] | < 1 | < 1
5 | Cc1cc(OCCCC(=O)NCCNC(=O)[C@H](CS(=O)(=O)O)NC(=O)[C@H](CS(=O)(=O)O)NC(=S)Nc2ccc(C[C@@H](CN(CC(=O)O)CC(C)N(CC(=O)O)CC(=O)O)N(CC(=O)O)CC(=O)O)cc2)cc(C)c1S(=O)(=O)N[C@@H](CNC(=O)c1ccc(CCc2ccc3c(n2)NCCC3)cc1)C(=O)O (stereo partly drawn) [Compound R3, 2,2′-((1-(((S)-2-(bis(carboxymethyl)amino)-3-(4-(3-((R)-1-(((R)-1-((2-(4-(4-(N—((S)-1-carboxy-2-(4-(2-(5,6,7,8-tetrahydro-1,8-naphthyridin-2-yl)ethyl)benzamido)ethyl)sulfamoyl)-3,5-dimethylphenoxy)butanamido)ethyl)amino)-1-oxo-3-sulfopropan-2-yl)amino)-1-oxo-3-sulfopropan-2-yl)thioureido)phenyl)propyl) (carboxymethyl)amino)propan-2-yl)azanediyl)diacetic acid] | < 1 | < 1
